US9238815B2 (priority 2009, dated 2016)

How the values were obtained:
WSN-Ren virus [1] = format: cell-based, influenza A/WSN/33 virus
influenza A/WSN/33 virus [2] = assay: Small molecule inhibition of virus growth in A549 cells, plaque assay; format: cell-based
influenza virus = format: cell-based
[3] = system: pseudotyped lentivirus particles bearing influenza virus HA (WSN); format: cell-based
influenza A/WSN/33 virus [4] = format: cell-based
WSN-Ren virus [5] = format: cell-based, influenza A/WSN/33 virus; remark: listed apart in the source

CCc1cc(-c2n[nH]c(C)c2-c2ccc3c(c2)OCCO3)c(O)cc1O [CCT018159, 4-(4-(2,3-Dihydro-1,4-benzodioxin-6-yl)-5-methyl-1H-pyrazol-3-yl)-6-ethylresorcinol]
WSN-Ren virus growth (WSN-Ren virus [1]): reduce influenza virus growth

COc1cc2c(O)c3c(c(-c4ccc5c(c4)OCO5)c2cc1OC)C(=O)OC3 [Diphyllin]
inhibition of influenza A/WSN/33 virus (influenza A/WSN/33 virus [2]; A549 cells, MOI=1, FIG. 8b): Dose-dependent inhibition
influenza virus inhibitory activity in high-throughput screen (influenza virus): having influenza virus inhibitory activity
influenza virus entry [3]: inhibits influenza virus entry

O=c1[nH]c2ccccc2c(O)c1-c1nc2ccccc2[nH]1 [FGF/VEGF Receptor Inhibitor, 4-Hydroxy-3-benzimidazol-2-ylhydroquinolin-2-one]
WSN-Ren virus growth (WSN-Ren virus [1]): reduce influenza virus growth

COc1ccc(S(=O)(=O)N(CCO)c2ccccc2CN(C)C/C=C/c2ccc(Cl)cc2)cc1 [KN-93]
A/WSN/33 influenza viral replication (viral titers) (influenza A/WSN/33 virus [4]): inhibits A/WSN/33 influenza viral replication in a dose-dependent manner
cell viability (ATP levels) (MDCK cells): without affecting cell viability
influenza virus growth by plaque assay (influenza A/WSN/33 virus [2]; 20 μM): impairs influenza virus growth

COc1cc([C@@H]2c3cc4c(cc3[C@H](O)[C@H]3COC(=O)[C@H]23)OCO4)cc(OC)c1OC [Podophyllotoxin]
WSN-Ren virus growth (WSN-Ren virus [1]): reduce influenza virus growth

HIST3H3 (guide TGAGAGGTTGCGCAACGTTCA; target site or template, no part of the molecule; target sequence, further chemistry not given here)
Avg Score 12 h (WSN-Ren virus [5]): 0.6254
Avg Score 24 h (WSN-Ren virus [5]): 0.5921
Avg Score 36 h (WSN-Ren virus [5]): 0.4817
